From patent publication US9695155B2, “Herbicidal substituted pyrimidinyloxy benzene compounds” (E. I. DU PONT DE NEMOURS AND COMPANY, priority 2013, dated 2017)

Columns and labels:
rice = experiment: Test C flooded paddy test; assay type: in vivo, Oryza sativa; conditions: Flood, scale 0 to 100 (0 no effect, 100 complete control), 13 to 15 days
Method in brief: (§1)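 Test compounds are applied straight into paddy water held 3 cm above the soil surface, with that flood maintained for the whole test. After 13 to 15 days in the greenhouse, each species is scored visually relative to controls.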

soybean = experiment: Test E preemergence; assay type: in vivo, Glycine max; conditions: for Soybean plant response rating: scale 0 to 100 (0 no effect, 100 complete control)
Method in brief: (§2)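 Compound in a non-phytotoxic solvent mixture with surfactant was applied preemergence to seeds in silt loam soil, or postemergence to plants 2 to 18 cm tall grown in peat-based potting medium. Plants were kept in a greenhouse for 14 to 21 days, then rated visually against untreated controls on a 0 (no effect) to 100 (complete control) scale.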

palmer pigweed = experiment: Test E preemergence; assay type: in vivo, Amaranthus palmeri; conditions: for Pigweed, Palmer plant response rating: scale 0 to 100 (0 no effect, 100 complete control)
Method in brief: as §2

ducksalad = experiment: Test C flooded paddy test; assay type: in vivo, Heteranthera limosa; conditions: Flood, scale 0 to 100 (0 no effect, 100 complete control), 13 to 15 days
Method in brief: as §1

green foxtail = experiment: Test E preemergence; assay type: in vivo, Setaria viridis; conditions: for Foxtail, Green plant response rating: scale 0 to 100 (0 no effect, 100 complete control)
Method in brief: as §2

ragweed = experiment: Test E preemergence; assay type: in vivo, Ambrosia elatior; conditions: for Ragweed plant response rating: scale 0 to 100 (0 no effect, 100 complete control)
Method in brief: as §2

dayflower = experiment: Test E preemergence; assay type: in vivo, Commelina virginica; conditions: for Dayflower, VA plant response rating: scale 0 to 100 (0 no effect, 100 complete control)
Method in brief: as §2

wild poinsettia = experiment: Test E preemergence; assay type: in vivo, Euphorbia heterophylla; conditions: for Poinsettia, Wild plant response rating: scale 0 to 100 (0 no effect, 100 complete control)
Method in brief: as §2

yellow nutsedge = experiment: Test E preemergence; assay type: in vivo, Cyperus esculentus; conditions: for Nutsedge, Yellow plant response rating: scale 0 to 100 (0 no effect, 100 complete control)
Method in brief: as §2

sandbur = experiment: Test E preemergence; assay type: in vivo, Cenchrus echinatus; conditions: for Sandbur plant response rating: scale 0 to 100 (0 no effect, 100 complete control)
Method in brief: as §2

fall panicum = experiment: Test E preemergence; assay type: in vivo, Panicum dichotomiflorum; conditions: for Panicum, Fall plant response rating: scale 0 to 100 (0 no effect, 100 complete control)
Method in brief: as §2

[1] = 8 g ai/ha, scale 0 to 100, 0 is no effect, 100 is complete control
[2] = 125 g ai/ha, scale 0 to 100, 0 no effect, 100 complete control

| SMILES | Plant response rating, Rice (rice; 31 g ai/ha) | Plant response rating, Rice (rice; 62 g ai/ha) | Plant response rating, Rice (rice; 125 g ai/ha) | Plant response rating, Rice (rice; 250 g ai/ha) | Soybean plant response rating (soybean; 62 g ai/ha) | Pigweed, Palmer plant response rating (palmer pigweed; 62 g ai/ha) | Plant response rating, Ducksalad (ducksalad; 31 g ai/ha) | Plant response rating, Ducksalad (ducksalad; 62 g ai/ha) | Plant response rating, Ducksalad (ducksalad; 125 g ai/ha) | Plant response rating, Ducksalad (ducksalad; 250 g ai/ha) | Foxtail, Green plant response rating (green foxtail; 62 g ai/ha) | Ragweed plant response rating (ragweed; 62 g ai/ha) | Dayflower, VA plant response rating (dayflower; 62 g ai/ha) | Poinsettia, Wild plant response rating (wild poinsettia; 62 g ai/ha) | Nutsedge, Yellow plant response rating (yellow nutsedge; 62 g ai/ha) | Sandbur plant response rating (sandbur; 62 g ai/ha) | Panicum, Fall plant response rating (fall panicum; 62 g ai/ha) | other results |
| --- | --- | --- | --- | --- | --- | --- | --- | --- | --- | --- | --- | --- | --- | --- | --- | --- | --- | --- |
| Fc1cccc(Oc2ncc(Cl)cn2)c1-n1cc(I)cn1 [Compound 179] | 0 | 0 | 10 | 10 | 25 | 100 | 20 | 60 | 85 | 95 | 25 | 0 | 0 | 30 | 30 | 15 | 75 | Plant response rating, Soybean (soybean; [1]): 0; Plant response rating, Soybean (soybean; [2]): 40; Plant response rating, Pigweed, Palmer (palmer pigweed; [1]): 0; Plant response rating, Pigweed, Palmer (palmer pigweed; [2]): 100; Plant response rating, Foxtail, Green (green foxtail; [1]): 0; Foxtail, Green plant response rating (green foxtail; 16 g ai/ha): 0; Plant response rating, Foxtail, Green (green foxtail; [2]): 100; Plant response rating, Ragweed (ragweed; [1]): 0; Plant response rating, Ragweed (ragweed; [2]): 0; Plant response rating, Dayflower, VA (dayflower; [1]): 0; Dayflower, VA plant response rating (dayflower; 16 g ai/ha): 0; Plant response rating, Dayflower, VA (dayflower; [2]): 60; Plant response rating, Poinsettia, Wild (wild poinsettia; [1]): 0; Plant response rating, Poinsettia, Wild (wild poinsettia; [2]): 35; Plant response rating, Nutsedge, Yellow (yellow nutsedge; [1]): 0; Plant response rating, Nutsedge, Yellow (yellow nutsedge; [2]): 30; Plant response rating, Sandbur (sandbur; [1]): 0; Plant response rating, Sandbur (sandbur; [2]): 15; Plant response rating, Panicum, Fall (fall panicum; [1]): 0; Plant response rating, Panicum, Fall (fall panicum; [2]): 98 |
| FC(F)c1cccc(Oc2ncc(Cl)cn2)c1-n1cc(Br)cn1 [Compound 194, 2-[2-(4-bromo-1H-pyrazol-1-yl)-3-(difluoromethyl)phenoxy]-5-chloropyrimidine] | 10 | 10 | 10 | 10 | 20 | 100 | 65 | 80 | 90 | 100 | 80 | 20 | 40 | 0 | 20 | 20 | 100 | Soybean plant response rating (soybean; 31 g ai/ha): 0; Pigweed, Palmer plant response rating (palmer pigweed; 31 g ai/ha): 98; Foxtail, Green plant response rating (green foxtail; 31 g ai/ha): 35; Ragweed plant response rating (ragweed; 31 g ai/ha): 0; Dayflower, VA plant response rating (dayflower; 31 g ai/ha): 0; Poinsettia, Wild plant response rating (wild poinsettia; 31 g ai/ha): 10; Nutsedge, Yellow plant response rating (yellow nutsedge; 31 g ai/ha): 0; Sandbur plant response rating (sandbur; 31 g ai/ha): 20; Panicum, Fall plant response rating (fall panicum; 31 g ai/ha): 80 |
